A word on the IC50: it is the concentration that gives 50% inhibition.

Experimental findings from article PMC9230651, “Discovery of Novel Quinazoline Derivatives as Potent Antitumor Agents” (Molecules, 2022) are described below.

In series [1] the test system is MGC-803 cells. Put plainly: Transwell migration assay. The format is cell-based, human. The conditions noted are these: 0.37, 0.75, 1.5 µM; 48 h. On the procedure: For the transwell assay, 600 µL of fresh medium was added to 20% FBS to the substrate of the 24-well plates. Then, 2 × 10^4 MGC-803 cells were seeded into each well, followed by incubation with 0.37 µM, 0.75 µM, and 1.5 µM compound 18 in the upper chambers for 48 h, which was then stained by DAPI solution and photographed.

In series [2] the test system is MGC-803 cells. Put plainly: Apoptosis, Annexin V-FITC/PI flow cytometry. The format is cell-based, human. Particulars: 1.5 μM, 48 h. The procedure: Cells were plated in 6-well plates and incubated with 0.37 µM, 0.75 µM, and 1.5 µM compound 18 for 48 h, followed by being harvested and stained by PI and Annexin V according to manufacturer’s protocol. Finally, flow cytometry (BD Bioscience, Franklin Lake, NJ, USA) was applied to detect apoptotic cells.

Another series relates to MCF-7. Put plainly: MTT assay, antiproliferative activity against MCF-7. The format is cell-based, human. The conditions noted are these: Homo sapiens, MCF7, 72 h. The procedure: (§1) Human gastric carcinoma cell line MGC-803, human breast adenocarcinoma cell line MCF-7, human lung carcinoma cell lines (PC-9, A549, and H1975), and human immortalized gastric mucosa epithelial cell line GES-1 were purchased from the Cell Bank of Shanghai Institute of Biochemistry and Cell Biology (Shanghai, China), and all of them were cultured in RPMI-1640 and DMEM complete medium (Solarbio, Beijing, China) at 37 °C in a 5% CO2 humidified atmosphere.
(§2) Briefly, cells were incubated with different concentrations of the test compound for different hours in each experiment for 72 h, followed by adding 20 μL MTT solution to each well, which was then incubated for another 4 h. An enzyme-linked immunosorbent assay reader (BioTek, South Plainfield, VT, USA) was used to measure absorbance values at 490 nm, and SPSS20 software was used to calculate the cell viability and IC50 values.
On the technique in general: Tetrazolium assays rely on reduction of a dye to a coloured formazan, in cell work by metabolically active cells.

A further series has as its system A549. Put plainly: MTT assay, antiproliferative activity against A549. The format is cell-based, human. The conditions noted are these: Homo sapiens, A549, 72 h. On the procedure:
as §1, §2

A further series relates to GES-1. Put plainly: MTT assay, toxicity toward normal gastric epithelial cell line GES-1. The format is cell-based, human. On the procedure:
as §1, §2

The test system of series [3] is MGC-803 cells. Put plainly: Western blot of apoptosis-related proteins. The format is cell-based, human. Particulars: 0.37, 0.75, 1.5 µM; 48 h. The procedure:
Cells were incubated with 0.37 µM, 0.75 µM, and 1.5 µM compound 18 for 48 h and then collected with trypsin and total proteins and extracted in a lysis buffer. A BCA protein assay kit (Solarbio, Beijing, China) was used to confirm the concentration of the total proteins. These samples were detected by the standard protocol of western blot as described before.
On the technique in general: A western blot detects proteins with antibodies after separation by electrophoresis.

Series [4] relates to MGC-803 cells. Put plainly: Wound healing migration assay. The class given is cell-based, human. The conditions noted are these: 1 µM; 12 h, 24 h, 48 h. On the procedure:
For the wound healing assay, MGC-803 cells were seeded into 6-well plates, reaching the density of 90%, followed by being scraped off using a sterile yellow pipette tip and photographed. Subsequently, cells were treated with compound 18 at 1 µM for 12 h, 24 h, and 48 h, respectively, and then photographed again each time.

Series [5] deals with MGC-803 cells. Put plainly: Cell cycle distribution, PI flow cytometry. The format is cell-based, human. The conditions noted are these: 0.37, 0.75, 1.5 µM; 48 h. The procedure:
MGC-803 cells were seeded into 6-well plates at a concentration of 4 × 10^5 cells per well, followed by being incubated with 0.37 µM, 0.75 µM, and 1.5 µM compound 18 for 48 h, which were subsequently harvested and stained in 500 µL Propidium Iodide solution (PI 1 mg/mL, RNase A 10 mg/mL, Solarbio, Beijing, China) at room temperature without light for 30 min. Finally, flow cytometry (BD Bioscience, Franklin Lake, NJ, USA) was used to detect and analyze staining cells.
(In flow cytometry, cells or beads pass a laser one at a time.)

In the next series the test system is H1975. Put plainly: MTT assay, antiproliferative activity against H1975. The format is cell-based, human. Particulars: Homo sapiens, NCI-H1975, 72 h. On the procedure: as §1, §2
For the next series, the system named is MGC-803. Put plainly: MTT assay, antiproliferative activity against MGC-803. The class given is cell-based, human. Particulars: Homo sapiens, MGC-803, 72 h. On the procedure: as §1, §2
In another series the test system is PC-9. Put plainly: MTT assay, antiproliferative activity against PC-9. The class given is cell-based, human. Particulars: Homo sapiens, PC-9, 72 h. On the procedure: as §1, §2
The test system of series [6] is healthy male and female mice. Put plainly: Acute toxicity assay. The format is in vivo. The conditions noted are these: 1000 mg/kg intragastric, single dose. On the procedure: The solution of compound 18 was prepared in 80% PEG400 solution. Eight ICR mice (four male/four female, 24–28 g, aged five to six weeks) were obtained from the Beijing Vital River Laboratory Animal Technology Co., Ltd. (Beijing, China). All animal treatments were performed under the guidelines of the National Institutes of Health Guide for the Care and Use of Laboratory Animals using an approved animal protocol by the Zhengzhou University Committee on Animal Care. Male and female mice ([…]) were divided randomly into four groups: a male control group (n = 2), a female control group (n = 2), a male group (n = 2), and a female group (n = 2). All mice were deprived of feed for 12 h. 1 g/kg compound 18 was administered intragastrically in the experiment group of mice, while the mice in the control group received the same volume of vehicle solution on the first day, followed by monitoring abnormal behaviors, body weight, and the death of these mice every day during the following two weeks.

The test system of series [7] is xenograft model carrying MGC-803 cells. Put plainly: In vivo anti-tumor activity, gastric cancer xenograft model. Details: species or system mice. Particulars: 25 mg/kg intragastric per day for 21 days. On the procedure:
Male mice (23–25 g, aged 5–6 weeks) were obtained from Beijing Vital River Laboratory Animal Technology Co., Ltd. (Beijing, China). All animal treatments were performed under the guidelines of the National Institutes of Health Guide for the Care and Use of Laboratory Animals using an approved animal protocol by the Zhengzhou University Committee on Animal Care (2020CHEM-ZZU-086). 1.0 × 10^7 MGC-803 cells were implanted in the right flank of mice subcutaneously. After 16 days, the tumor volume reached 100 mm^3, followed by being randomly divided into three groups (n = 7): solvent group, 5-Fu (10 mg/kg) group, and compound 18 (25 mg/kg) group. An intravenous injection of 5-Fu (10 mg/kg) was administered into the corresponding mice group every three days, while the mice in compound 18 group received intragastric administration of 25 mg/kg compound 18 per day for 21 days. Tumor diameter and body weight were measured every two days, followed by the euthanization of the mice after 34 days, after which tumor weights were.

As for `O=C(/C=C/c1ccc(Br)cc1)c1ccc(Nc2nc(-c3ccccc3)nc3ccccc23)cc1` [compound 18, (E)-3-(4-Bromophenyl)-1-(4-((2-phenylquinazolin-4-yl)amino)phenyl)prop-2-en-1-one], the “effect on migration of MGC-803 cells, transwell assay” value with MGC-803 cells [1] was “effectively inhibit the migration of MGC-803 cells dose-dependently”. For the same molecule, the “apoptotic percentage (late and early apoptosis)” value with MGC-803 cells [2] was found to be 70.9%. For the same molecule, in the series on MCF-7, the midpoint of inhibition, the IC50, lay at 1610 ± 200 nM. Further, the IC50 in the series with A549 worked out at 1540 ± 380 nM. The molecule further came in with an IC50 in the series on GES-1 (Homo sapiens, GES1, MTT, 72 h) of 26.8 ± 1.85 µM. In addition, the “selectivity MGC-803 against GES-1” value in the series with GES-1 (IC50 GES-1 / IC50 MGC-803) is roughly 32 fold. Besides, in the series with MGC-803 cells [3], the “expression of Bax” value is given as “up-regulating”, the “expression of Bcl-2” value is listed as “remarkably decreased”, the “expression of Mcl-1” value is listed as “remarkably decreased” and the “expression of cleaved PARP” value is given as “dose-dependently induced the up-regulation”. In the series on MGC-803 cells [4], the “effect on migration of MGC-803 cells, wound healing assay” value is recorded as “effectively inhibit the migration of MGC-803 cells dose-dependently”. Moreover, the “effect on cell cycle” value in the series on MGC-803 cells [5] is given as “significantly induced cell cycle arrest at G2/M”. Besides, half-maximal inhibition in the series on H1975 (IC50) required 2120 ± 520 nM. The IC50 in the series on MGC-803 is 850 ± 140 nM. Besides, the IC50 in the series with PC-9 stood at 1260 ± 180 nM. Besides, the “pathological damage of brain, heart, liver, spleen, lung, kidney (HE staining)” value in series [6] was “no marked pathological damage”. For the same molecule, in series [7], the average tumor volume entry was “decreased the average tumor volume”; the body weight result is on record as “did not cause significant changes in body weight”; the tumor weight entry was “decreased the average tumor volume and tumor weight”.
